Here are results for two molecules from patent publication US4535083A, “Cleavage products of 4',6'-didesoxy-4'-thio-,6'-amino-hepturonic acid nucleosides” (Bayer Aktiengesellschaft, priority 1982, dated 1985).

SMILES strings stand for the structures. Values after ≈ are worked out from the molar mass of the structure shown.

Assay in all cases: in vitro agar dilution test (NCCLS), MIC
Common to all, as to format: cell-based

The subject of assay [1] is Staph. epid. 25185. The conditions noted are these: inoculation density 10^4 per inoculation point. The procedure: (§1) In the in vitro agar dilution test according to the internationally customary test (American National Committee for Clinical Laboratory Standards=NCCLS), activity is found against the germs listed below.
(§2) The minimum inhibitory concentration (MIC) was determined by the agar dilution procedure, using an inoculator and an inoculation density of 10^4 per inoculation point. The MIC is the concentration at which no bacteria colonies grow.

The test system of assay [2] is E. coli Neumann. The conditions noted are these: Escherichia coli, inoculation density 10^4 per inoculation point. The procedure: as §1, §2
Assay [3] concerns Klebs. 57 USA. The conditions noted are these: inoculation density 10^4 per inoculation point. On the procedure:
as §1, §2

In assay [4] the test system is Serratia 16001. The conditions noted are these: inoculation density 10^4 per inoculation point. On the procedure: as §1, §2

Regarding `Cn1c(=NC(N)=O)ccn(C2SC(C(O)C(NC(=O)C(N)CO)C(=O)O)C(O)C2O)c1=O` (stereo not shown) [1 X = NCONH2], the values for the MIC in assay [1], in assay [2] and in assay [3] were 64 µg/mL (≈ 134 µM), 32 µg/mL (≈ 67.2 µM) and 4 µg/mL (≈ 8.4 µM), respectively.
In the case of `Cn1c(=O)ccn(C2SC(C(O)C(NC(=O)C(N)CO)C(=O)O)C(O)C2O)c1=O` (stereo not shown) [1 X = O], it took 128 µg/mL (≈ 295 µM) to inhibit growth in assay [4] (MIC).
